Here are results for four compounds from patent publication US6096779A, “Amorphous piretanide, piretanide polymorphs, process for their preparation and their use” (Hoechst Pharmaceuticals & Chemicals K.K., priority 1995, dated 2000).

Series [1] is described as follows: Solubility in buffers at various pH values by dissolution tester, absorbance at 275 nm, 37° C. The following applies: for solubility in a buffer at a pH value of 1: pH 1, potassium chloride-hydrochloric acid buffer. It is filed as physicochemical. As to the method: The amorphous piretanide obtained as described in Example 1 was analyzed for solubility in a buffer at various pH values by means of a dissolution tester, using piretanide form A as a control.
A sufficient amount of the amorphous piretanide to ensure supersaturation was added to 500 ml each of the buffers at various pH values as indicated below, and about 10 ml of a solution was sampled at appropriate intervals and filtered using a 0.45 μm filter. About 5 ml of the initial solution was discarded and the remainder was used as a sample solution and, if required, diluted with the same buffer. Solubility was determined by absorbance at 275 nm.
Buffer: pH 1 Potassium chloride-hydrochloric acid system
pH 3 Sodium chloride-glycine-hydrochloric acid system
pH 6.8 JP XII, second fluid
Solution temperature: 37° C.
The piretanide polymorph obtained as described in Example 6 was analyzed for solubility in a buffer at various pH values by means of a dissolution tester, using piretanide form A as a control.
A sufficient amount of the amorphous piretanide to ensure supersaturation was added to 500 ml each of the buffers at various pH values as indicated below, and about 10 ml of a solution was sampled at appropriate intervals and filtered using a 0.45 μm filter. About 5 ml of the initial solution was discarded and the remainder was used as a sample solution and, if required, diluted with the same buffer, if necessary, solubility was determined by absorbance at 275 nm.

The conditions of series [2]: cited from earlier work; for solubility in a buffer at a pH value of 3: pH 3, 37° C.; for solubility at a pH value of 6.8: pH 6.8, 37° C.
Series [3] in a line: Solubility in buffers at various pH values by dissolution tester, absorbance at 275 nm, 37° C. The series is classed as physicochemical. The following applies: pH 1, 37° C., vs piretanide form B.
Setting [4] is: pH 3, sodium chloride-glycine-hydrochloric acid buffer.

In brackets after ≈: the same amount, converted by molar mass. Like-named read-outs stand apart in the source and are kept apart here.

Regarding `NS(=O)(=O)c1cc(C(=O)O)cc(N2CCCC2)c1Oc1ccccc1` [amorphous piretanide, 4-phenoxy-3-(1-pyrrolidinyl)-5-sulfamoyl-benzoicacid], the “solubility in a buffer at a pH value of 1” value (“solubility … of 1” below) in series [1] stood at 15.2 mg/100 ml. Besides, the “solubility in a buffer at a pH value of 3” value (“solubility … of 3” for short) in series [1] (setting [4]) was determined as 6.5 mg/100 ml. The “solubility in a buffer at a pH value of 6.8” value in series [1] (pH 6.8, JP XII second fluid) is on record as 901.3 mg/100 ml.
As to `NS(=O)(=O)c1cc(C(=O)O)cc(N2CCCC2)c1Oc1ccccc1` [piretanide form A, 4-phenoxy-3-(1-pyrrolidinyl)-5-sulfamoyl-benzoicacid], in series [1] (jp xii second fluid, pH 6.8, pH 6.8, JP XII second fluid, read-out: solubility in a buffer at a pH value of 6.8 (control, unit as printed)), the solubility came out at 1940 µg/mL (≈ 5.35 mM). Further, the “solubility … of 1” value is 7.5 mg/100 ml in series [1] and 7.5 mg/100 ml in series [2] (pH 1, 37° C., background). Moreover, the “solubility … of 3” value in series [1] (setting [4]) and in series [2] (background) was 4.2 mg/100 ml in each case. Further, the “solubility at a pH value of 6.8” value in series [2] (background) is 193.8 mg/100 ml. The water solubility in series [2] (water, 20° C.) is reported as 7.9 mg/100 ml.
In the case of `NS(=O)(=O)c1cc(C(=O)O)cc(N2CCCC2)c1Oc1ccccc1` [piretanide form B, 4-phenoxy-3-(1-pyrrolidinyl)-5-sulfamoyl-benzoicacid], in series [2] (background), the “solubility … of 3” value was 6.4 mg/100 ml and the “solubility at a pH value of 6.8” value is 195.4 mg/100 ml.
Consider `NS(=O)(=O)c1cc(C(=O)O)cc(N2CCCC2)c1Oc1ccccc1` [piretanide polymorph, 4-phenoxy-3-(1-pyrrolidinyl)-5-sulfamoyl-benzoicacid], for which the solubility was determined as 9270 µg/mL (≈ 25.6 mM) in series [1] (jp xii second fluid, pH 6.8, pH 6.8, JP XII second fluid, read-out: solubility in a buffer at a pH value of 6.8) and 67 µg/mL (≈ 0.185 mM) in series [1] (nacl-glycine-hcl buffer, pH 3, aqueous buffer, pH 3, sodium chloride-glycine-hydrochloric acid buffer, read-out: solubility in a buffer at a pH value of 3). For the same compound, the “solubility … of 1” value in series [1] was determined as 12.2 mg/100 ml. In series [3], the “solubility compared with piretanide form B, pH 1 (in words)” value is “approximately similar solubility to that of piretanide form B”.
